Experimental data published in US5100905A, “Method for inhibiting growth of bacteria, fungi or algae by treatment with biocide composition” (Rohm and Haas Company, priority 1991, dated 1992).
“And” between values parts separate entries of the source, which are not always exact repeats. Identical values can stand only once. Like-named read-outs stand apart in the source and are kept apart here.

Assays:
[1] = Growth inhibition / minimum inhibitory concentration (MIC) by 2-fold serial dilutions in Trypticase Soy Broth, 3 inoculations; assay type: cell-based; settings: read-out: End-point activity (MIC) QA (573 alone); on Growth after inoculation: key: -: growth inhibited; +: growth not inhibited
Method: (§1) Each single culture was inoculated to TSB agar slants and incubated for 2 days at 30° C. for C. albicans and all bacteria except E. coli and S. aureus, which were at 37° C., and incubated for 10-14 days at 25° C. for fungal cultures. The bacteria and fungi were then washed off the slants with phosphate buffer (0.125 M, pH 7.2) and inoculated into each test tube containing a given concentration and ratio of 573 and 886 to make final cell concentration of about 2×10^7 bacteria and 2×10^6 fungi per ml. […] Seven days after inoculation, 5 microliter of sample from each test tube (containing about 10^5 bacteria and 10^4 fungi from original inoculation) was removed and assessed for viable organisms by 1:50 dilution into TSB medium and checked for regrowth. No viable organisms were detected from the test tubes where MICs were observed. […] Each test tube was reinoculated 2 more times (a total of 3 inoculations) to determine the capacity and the longlasting activity of the combinations.
(§2) As shown, a wide range of concentration and ratios was tested. More importantly all the critical end-point activities for the combinations were covered. […] Thus, the end-point activities are based on the minimum concentrations of a given ratio of combination product that inhibit all three inoculations.

[2] = test system: mixture of the following 12 microorganisms: Escherichia coli, Candida albicans, Pseudomonas oleovarans, Pseudomonas aeruginosa, Staphylococcus aureus …; assay: as above; assay type: cell-based
Method: as §1, §2

skin of guinea pigs = assay: Sensitization study, closed-patch test of Buehler; assay type: in vivo, guinea pig
Method: The study was conducted to determine the sensitization potential of the synergistic combination of 3.5% 651 and 96.5% 573. The results were compared to the sensitization potential of 886 (containing 75% 651 and 25% 573) and pure 573.
The closed-patch test of Buehler Current Concepts in Cutaneous Toxicology, (New York: Academic Press 1970), pp. 25-40, is used to investigate the sensitization potential of the materials in the guinea pig. The combination (1.5% total active ingredient) at aqueous concentrations of 1000, 5000, 10000 and 15000 ppm a.i., the 886 (13.9% total active ingredient) at aqueous concentrations of 250, 500 and 750 ppm a.i. and the 573 (solid containing 99.5% total active ingredient) at aqueous concentrations of 5000, 15000 and 30000 ppm a.i. were applied topically to the skin of guinea pigs by means of occluded patches (0.4 ml per patch). All guinea pigs (10 per group at each concentration) received a total of ten 6-hr induction exposures over a 22 day period. In addition, a group of guinea pigs were treated with dry patches only and served as the naive control group. Two weeks after the last induction treatment guinea pigs induced with the combination were challenged with 3 concentrations of the combination in distilled water (1000, 5000 and 15000 ppm a.i.), those induced with 886 were challenged with 3 concentrations of 886 in distilled water (100, 250 and 750 ppm a.i.) and those induced with 573 alone were challenged with 3 concentrations of 573 in distilled water (1000, 5000 and 15000 ppm a.i.). Twenty-four (24) and 48 hr after the challenge doses, the application sites were examined for erythema reactions and graded from 0 to 3 in accordance with a pre-established scoring system. Reactions graded 1 or greater were judged to be skin sensitization reactions.
^a Guinea pigs received ten (6 hr.) induction exposures of the ten
materials (0.4 ml per exposure) over a 22 day period.
^b All guinea pigs received 0.4 ml of challenge doses as specified tw
weeks after the last induction dose.
^c Guinea pigs received sham treatment only.

[3] = Expt. 1, all three inoculations
[4] = Expt. 2, all three inoculations

Q: For `Cn1sccc1=O` [compound 573, 2-methyl-4-isothiazolin-3-one], which MIC [1, 3] is on record?
A: 500 µg/mL

Q: What about the MIC [1, 4] of the same molecule?
A: 125 µg/mL

Q: What about the Growth after inoculation ([2]; Expt. 1, 1st inoculation, 573(A) 0.5 ppm) of the same molecule?
A: +

Q: And the Growth after inoculation ([2]; Expt. 1, 1st inoculation, 573(A) 1.0 ppm)?
A: +

Q: And the Growth after inoculation ([2]; Expt. 1, 1st inoculation, 573(A) 2.0 ppm)?
A: +

Q: And the Growth after inoculation ([2]; Expt. 1, 1st inoculation, 573(A) 3.9 ppm)?
A: +

Q: And the Growth after inoculation ([2]; Expt. 1, 1st inoculation, 573(A) 9.8 ppm)?
A: +

Q: What about the Growth after inoculation ([2]; Expt. 1, 1st inoculation, 573(A) 15.6 ppm) of the same molecule?
A: +

Q: And the Growth after inoculation ([2]; Expt. 1, 1st inoculation, 573(A) 31.2 ppm)?
A: +

Q: And the Growth after inoculation ([2]; Expt. 1, 1st inoculation, 573(A) 62.5 ppm)?
A: +

Q: And the Growth after inoculation ([2]; Expt. 1, 1st inoculation, 573(A) 125.0 ppm)?
A: +

Q: And the Growth after inoculation ([2]; Expt. 1, 1st inoculation, 573(A) 250.0 ppm)?
A: -

Q: And the Growth after inoculation ([2]; Expt. 1, 1st inoculation, 573(A) 500.0 ppm)?
A: -

Q: What about the Growth after inoculation ([2]; Expt. 1, 2nd inoculation, 573(A) 0.5 ppm) of the same molecule?
A: +

Q: And the Growth after inoculation ([2]; Expt. 1, 2nd inoculation, 573(A) 1.0 ppm)?
A: +

Q: And the Growth after inoculation ([2]; Expt. 1, 2nd inoculation, 573(A) 2.0 ppm)?
A: +

Q: What about the Growth after inoculation ([2]; Expt. 1, 2nd inoculation, 573(A) 3.9 ppm) of the same molecule?
A: +

Q: What about the Growth after inoculation ([2]; Expt. 1, 2nd inoculation, 573(A) 9.8 ppm) of the same molecule?
A: +

Q: And the Growth after inoculation ([2]; Expt. 1, 2nd inoculation, 573(A) 15.6 ppm)?
A: +

Q: What about the Growth after inoculation ([2]; Expt. 1, 2nd inoculation, 573(A) 31.2 ppm) of the same molecule?
A: +

Q: What about the Growth after inoculation ([2]; Expt. 1, 2nd inoculation, 573(A) 62.5 ppm) of the same molecule?
A: +

Q: And the Growth after inoculation ([2]; Expt. 1, 2nd inoculation, 573(A) 125.0 ppm)?
A: +

Q: What about the Growth after inoculation ([2]; Expt. 1, 2nd inoculation, 573(A) 250.0 ppm) of the same molecule?
A: +

Q: What about the Growth after inoculation ([2]; Expt. 1, 2nd inoculation, 573(A) 500.0 ppm) of the same molecule?
A: -

Q: What about the Growth after inoculation ([2]; Expt. 1, 3rd inoculation, 573(A) 0.5 ppm) of the same molecule?
A: +

Q: What about the Growth after inoculation ([2]; Expt. 1, 3rd inoculation, 573(A) 1.0 ppm) of the same molecule?
A: +

Q: And the Growth after inoculation ([2]; Expt. 1, 3rd inoculation, 573(A) 2.0 ppm)?
A: +

Q: What about the Growth after inoculation ([2]; Expt. 1, 3rd inoculation, 573(A) 3.9 ppm) of the same molecule?
A: +

Q: What about the Growth after inoculation ([2]; Expt. 1, 3rd inoculation, 573(A) 9.8 ppm) of the same molecule?
A: +

Q: And the Growth after inoculation ([2]; Expt. 1, 3rd inoculation, 573(A) 15.6 ppm)?
A: +

Q: What about the Growth after inoculation ([2]; Expt. 1, 3rd inoculation, 573(A) 31.2 ppm) of the same molecule?
A: +

Q: What about the Growth after inoculation ([2]; Expt. 1, 3rd inoculation, 573(A) 62.5 ppm) of the same molecule?
A: +

Q: And the Growth after inoculation ([2]; Expt. 1, 3rd inoculation, 573(A) 125.0 ppm)?
A: +

Q: What about the Growth after inoculation ([2]; Expt. 1, 3rd inoculation, 573(A) 250.0 ppm) of the same molecule?
A: +

Q: And the Growth after inoculation ([2]; Expt. 1, 3rd inoculation, 573(A) 500.0 ppm)?
A: -

Q: And the “End-point activity (MIC) Qa (573 in the mixture of 573 and 886)” value [2, 3]?
A: 500.0 ppm

Q: What about the Growth after inoculation ([2]; Expt. 2, 1st inoculation, 573(A) 0.5 ppm) of the same molecule?
A: +

Q: And the Growth after inoculation ([2]; Expt. 2, 1st inoculation, 573(A) 1.0 ppm)?
A: +

Q: And the Growth after inoculation ([2]; Expt. 2, 1st inoculation, 573(A) 2.0 ppm)?
A: +

Q: What about the Growth after inoculation ([2]; Expt. 2, 1st inoculation, 573(A) 3.9 ppm) of the same molecule?
A: +

Q: And the Growth after inoculation ([2]; Expt. 2, 1st inoculation, 573(A) 9.8 ppm)?
A: +

Q: What about the Growth after inoculation ([2]; Expt. 2, 1st inoculation, 573(A) 15.6 ppm) of the same molecule?
A: +

Q: And the Growth after inoculation ([2]; Expt. 2, 1st inoculation, 573(A) 31.2 ppm)?
A: +

Q: And the Growth after inoculation ([2]; Expt. 2, 1st inoculation, 573(A) 62.5 ppm)?
A: +

Q: What about the Growth after inoculation ([2]; Expt. 2, 1st inoculation, 573(A) 125.0 ppm) of the same molecule?
A: -

Q: And the Growth after inoculation ([2]; Expt. 2, 1st inoculation, 573(A) 250.0 ppm)?
A: -

Q: What about the Growth after inoculation ([2]; Expt. 2, 1st inoculation, 573(A) 500.0 ppm) of the same molecule?
A: -

Q: And the Growth after inoculation ([2]; Expt. 2, 2nd inoculation, 573(A) 0.5 ppm)?
A: +

Q: And the Growth after inoculation ([2]; Expt. 2, 2nd inoculation, 573(A) 1.0 ppm)?
A: +

Q: And the Growth after inoculation ([2]; Expt. 2, 2nd inoculation, 573(A) 2.0 ppm)?
A: +

Q: What about the Growth after inoculation ([2]; Expt. 2, 2nd inoculation, 573(A) 3.9 ppm) of the same molecule?
A: +

Q: What about the Growth after inoculation ([2]; Expt. 2, 2nd inoculation, 573(A) 9.8 ppm) of the same molecule?
A: +

Q: And the Growth after inoculation ([2]; Expt. 2, 2nd inoculation, 573(A) 15.6 ppm)?
A: +

Q: What about the Growth after inoculation ([2]; Expt. 2, 2nd inoculation, 573(A) 31.2 ppm) of the same molecule?
A: +

Q: What about the Growth after inoculation ([2]; Expt. 2, 2nd inoculation, 573(A) 62.5 ppm) of the same molecule?
A: +

Q: And the Growth after inoculation ([2]; Expt. 2, 2nd inoculation, 573(A) 125.0 ppm)?
A: -

Q: What about the Growth after inoculation ([2]; Expt. 2, 2nd inoculation, 573(A) 250.0 ppm) of the same molecule?
A: -

Q: And the Growth after inoculation ([2]; Expt. 2, 2nd inoculation, 573(A) 500.0 ppm)?
A: -

Q: And the Growth after inoculation ([2]; Expt. 2, 3rd inoculation, 573(A) 0.5 ppm)?
A: +

Q: And the Growth after inoculation ([2]; Expt. 2, 3rd inoculation, 573(A) 1.0 ppm)?
A: +

Q: And the Growth after inoculation ([2]; Expt. 2, 3rd inoculation, 573(A) 2.0 ppm)?
A: +

Q: What about the Growth after inoculation ([2]; Expt. 2, 3rd inoculation, 573(A) 3.9 ppm) of the same molecule?
A: +

Q: And the Growth after inoculation ([2]; Expt. 2, 3rd inoculation, 573(A) 9.8 ppm)?
A: +

Q: What about the Growth after inoculation ([2]; Expt. 2, 3rd inoculation, 573(A) 15.6 ppm) of the same molecule?
A: +

Q: What about the Growth after inoculation ([2]; Expt. 2, 3rd inoculation, 573(A) 31.2 ppm) of the same molecule?
A: +

Q: And the Growth after inoculation ([2]; Expt. 2, 3rd inoculation, 573(A) 62.5 ppm)?
A: +

Q: And the Growth after inoculation ([2]; Expt. 2, 3rd inoculation, 573(A) 125.0 ppm)?
A: -

Q: What about the Growth after inoculation ([2]; Expt. 2, 3rd inoculation, 573(A) 250.0 ppm) of the same molecule?
A: -

Q: What about the Growth after inoculation ([2]; Expt. 2, 3rd inoculation, 573(A) 500.0 ppm) of the same molecule?
A: -

Q: What about the “End-point activity (MIC) Qa (573 in the mixture of 573 and 886)” value [2, 4] of the same molecule?
A: 125.0 ppm

Q: What about the “Contribution to the overall activity of 886” value ([2]; at very low concentrations (<8 ppm)) of the same molecule?
A: does not contribute significantly to the overall activity of 886

Q: And the “Overall incidence of responses” value (skin of guinea pigs; 5000 and 15000 ppm induction, 1000, 5000 and 15000 ppm challenge)?
A: 7 out of a possible 60 responses

Q: What about the Erythema (skin of guinea pigs; induction 5000 and 15000 ppm a.i., challenge 1000 ppm a.i.) of the same molecule?
A: no erythema was observed

Q: And the “Erythema responses of 1 or greater at 24 and/or 48 hours” value (shortened to “Erythema responses of 1 or greater”) (skin of guinea pigs; induction 5000 ppm, challenge 1000 ppm (573))?
A: 0/10

Q: And the “Erythema responses of 1 or greater” value (skin of guinea pigs; induction 5000 ppm, challenge 5000 ppm (573))?
A: 1/10

Q: And the “Erythema responses of 1 or greater” value (skin of guinea pigs; induction 5000 ppm, challenge 15000 ppm (573))?
A: 2/10

Q: What about the “Erythema responses of 1 or greater” value (skin of guinea pigs; induction 15000 ppm, challenge 1000 ppm (573)) of the same molecule?
A: 0/10

Q: What about the “Erythema responses of 1 or greater” value (skin of guinea pigs; induction 15000 ppm, challenge 5000 ppm (573)) of the same molecule?
A: 1/10

Q: What about the “Erythema responses of 1 or greater” value (skin of guinea pigs; induction 15000 ppm, challenge 15000 ppm (573)) of the same molecule?
A: 3/10

Q: What about the “Erythema responses of 1 or greater” value (skin of guinea pigs; induction 30000 ppm, challenge 1000 ppm) of the same molecule?
A: 1/9

Q: And the “Erythema responses of 1 or greater” value (skin of guinea pigs; induction 30000 ppm, challenge 5000 ppm)?
A: 2/9

Q: What about the “Erythema responses of 1 or greater” value (skin of guinea pigs; induction 30000 ppm, challenge 15000 ppm) of the same molecule?
A: 3/9

Q: And the “Erythema responses of 1 or greater” value (skin of guinea pigs; naive control (sham induction), challenge 15000 ppm 573)?
A: No erythema was observed and 0/10
